From US20050208496A1, “Methods of testing for bronchial asthma or chronic obstructive pulmonary disease” (Genox Research, Inc., priority 2002, published 2005)

Tested on: respiratory epithelial cells

IL-13: human IL-13 (Peprotech, Inc.) added to the medium at 50 ng/mL to stimulate respiratory epithelial cells
AI948584 48086_at expression change (lot 1, Day 7, AI): −3.9 | AI971023 48539_at expression change (lot 1, Day 7, AI): −2.1 | AI984780 (52384_s_at) expression change (lot 1, Day 7, AI): −2.5 | AL040936 (45684_at) expression change (lot 1, Day 7, AI): −2.3 | AQP5 32909_at expression change (lot 1, Day 7, AI): −3.4 | ARHGEF4 36524_at expression change (lot 1, Day 7, AI): −4.1 | ARHV (82231_at) expression change (lot 1, Day 7, AI): −2.7 | AW022213 (79520_at) expression change (lot 1, Day 7, AI): −2.6 | AW025596 52634_at expression change (lot 1, Day 7, AI): −2.5 | AW025596 52637_g_at expression change (lot 1, Day 7, AI): −5.7 | B4GALT5 56373_at expression change (lot 1, Day 7, AI): −2.2 | BARX2 35425_at expression change (lot 1, Day 7, AI): −2.4 | BPGM (51261_at) expression change (lot 1, Day 7, AI): −3.7 | CBLB 514_at expression change (lot 1, Day 7, AI): −4.2 | CBLB 35632_at expression change (lot 1, Day 7, AI): −2 | COL12A1 (44730_at) expression change (lot 1, Day 7, AI): −3.5 | CRABP-II 1057_at expression change (lot 1, Day 7, AI): −5.4 | CRABP-II 41783_at expression change (lot 1, Day 7, AI): −8.8 | Clorf28 50075_at expression change (lot 1, Day 7, AI): −3.5 | DHCR24 (74557_s_at) expression change (lot 1, Day 7, AI): −2 | DKFZp434K1210 44682_at expression change (lot 1, Day 7, AI): −2.1 | DSC3 (79615_at) expression change (lot 1, Day 7, AI): −2.4 | DSC3a, b 47119_at expression change (lot 1, Day 7, AI): −2.8 | DSC3a, b 79615_at expression change (lot 1, Day 7, AI): −2.4 | EVPK 39569_at expression change (lot 1, Day 7, AI): −2 | FKBP5 (46271_at) expression change (lot 1, Day 7, AI): −2.3 | FLJ10298 (62490_f_at) expression change (lot 1, Day 7, AI): −4.5 | FLJ10718 52072_at expression change (lot 1, Day 7, AI): −3.8 | FLJ12541 43546_at expression change (lot 1, Day 7, AI): −10.1 | FLJ20048 (49196_at) expression change (lot 1, Day 7, AI): −4.3 | FLJ20500 43853_at expression change (lot 1, Day 7, AI): −2.1 | FLJ23309 45563_f_at expression change (lot 1, Day 7, AI): −2 | FLJ23516 47534_at expression change (lot 1, Day 7, AI): −4.1 | GABRP 40339_at expression change (lot 1, Day 7, AI): −2.1 | GAS41 (64121_at) expression change (lot 1, Day 7, AI): −2 | GJA1 32531_at expression change (lot 1, Day 7, AI): −8.8 | GK (61873_at) expression change (lot 1, Day 7, AI): −2.7 | GPD2 42720_at expression change (lot 1, Day 7, AI): −2 | GSTA3 58023 at expression change (lot 1, Day 7, AI): −2.7 | HEY1 44783_s_at expression change (lot 1, Day 7, AI): −4.5 | HIN-1 (46200_at) expression change (lot 1, Day 7, AI): −32.7 | HSPC195 44705_at expression change (lot 1, Day 7, AI): −2.4 | ID1 36619_r_at expression change (lot 1, Day 7, AI): −8 | IL20RA 42969_at expression change (lot 1, Day 7, AI): −2.1 | IVL 36355_at expression change (lot 1, Day 7, AI): −3.7 | KCNMA1 (47575_g_at) expression change (lot 1, Day 7, AI): −5.2 | KCNMA1 (53796_at) expression change (lot 1, Day 7, AI): −2.8 | KIAA0878 (48793_at) expression change (lot 1, Day 7, AI): −2.8 | KIAA1376 (62972_at) expression change (lot 1, Day 7, AI): −2.2 | KIAA1376 (64047_at) expression change (lot 1, Day 7, AI): −4 | KIAA1547 58531_g_at expression change (lot 1, Day 7, AI): −2.6 | KLF7 (42769_at) expression change (lot 1, Day 7, AI): −2.3 | KRT6B (62998_at) expression change (lot 1, Day 7, AI): −5.6 | KRT15 37582_at expression change (lot 1, Day 7, AI): −2.6 | LCE 45605_at expression change (lot 1, Day 7, AI): −2.6 | LMO4 1452_at expression change (lot 1, Day 7, AI): −2 | LOC51297 (55440_at) expression change (lot 1, Day 7, AI): −60.6 | LOC51297 (55442_g_at) expression change (lot 1, Day 7, AI): −181.3 | LOC51316 (63342_at) expression change (lot 1, Day 7, AI): −2.4 | LOC55893 (64071_at) expression change (lot 1, Day 7, AI): −3.5 | LOC129642 (42065_at) expression change (lot 1, Day 7, AI): −5.4 | LOC129642 (58288_at) expression change (lot 1, Day 7, AI): −7.2 | LOC131177 (43849_s_at) expression change (lot 1, Day 7, AI): −2.6 | LOC131177 (45394_s_at) expression change (lot 1, Day 7, AI): −2.3 | MGC12536 46924_at expression change (lot 1, Day 7, AI): −4.9 | MGC13102 (54791_at) expression change (lot 1, Day 7, AI): −3.9 | MGC14128 55924_at expression change (lot 1, Day 7, AI): −5.1 | MGC14128 (51669_r_at) expression change (lot 1, Day 7, AI): −4.4 | MGC14597 (46030_at) expression change (lot 1, Day 7, AI): −3.7 | MGC16207 43412_s_at expression change (lot 1, Day 7, AI): −2.6 | MGC16207 (65876_at) expression change (lot 1, Day 7, AI): −4 | N52554 47432_at expression change (lot 1, Day 7, AI): −2.7 | N71183 52473_at expression change (lot 1, Day 7, AI): −2.3 | PSCA (63958_at) expression change (lot 1, Day 7, AI): −6.5 | RAC2 32737_at expression change (lot 1, Day 7, AI): −4.9 | RIN1 1778_g_at expression change (lot 1, Day 7, AI): −2.1 | SCNN1B 39682_at expression change (lot 1, Day 7, AI): −7.6 | SEMA4B (46709_at) expression change (lot 1, Day 7, AI): −3.6 | SERPINA3 (75248_at) expression change (lot 1, Day 7, AI): −24.4 | SLC11A3 (45826_at) expression change (lot 1, Day 7, AI): −3.3 | SLC34A2 (48048_at) expression change (lot 1, Day 7, AI): −2 | SPON2 52576_s_at expression change (lot 1, Day 7, AI): −3 | SPRR1B 37160_at expression change (lot 1, Day 7, AI): −2.1 | STEAP 40297_at expression change (lot 1, Day 7, AI): −3.1 | T52027 (63150_at) expression change (lot 1, Day 7, AI): −2.9 | TCF8 33439_at expression change (lot 1, Day 7, AI): −2.1 | TGFBI (68339_at) expression change (lot 1, Day 7, AI): −4.2 | TNFAIP2 (74633_at) expression change (lot 1, Day 7, AI): −4.6 | TNNT1 36113_s_at expression change (lot 1, Day 7, AI): −5.5 | TPM1 36790_at expression change (lot 1, Day 7, AI): −3.3 | TPM1 36791_g_at expression change (lot 1, Day 7, AI): −3.2 | TPM1 36792_at expression change (lot 1, Day 7, AI): −3.9 | UCP2 37591_at expression change (lot 1, Day 7, AI): −12.7 | UGB 39220_at expression change (lot 1, Day 7, AI): −28.1 | VEGFC 1934_s_at expression change (lot 1, Day 7, AI): −2.4 | VIM 34091_s_at expression change (lot 1, Day 7, AI): −9.4 | W55956 46700_at expression change (lot 1, Day 7, AI): −2.3 | W72331 49486 at expression change (lot 1, Day 7, AI): −3.4 | AA167714 (54897_at) expression fold change (lot 1, Day 7, AI method): 3.9 fold | AA420479 (52539_at) expression fold change (lot 1, Day 7, AI method): 4.1 fold | AA582926 (52307_at) expression fold change (lot 1, Day 7, AI method): 3.8 fold | AA604375 (44127_at) expression fold change (lot 1, Day 7, AI method): 2.5 fold | ACP5 (677_s_at) expression, fold change upon IL-13 stimulation (lot 1, Day 7, AI method): 2.5 fold | ADAM8 (40712_at) expression, fold change upon IL-13 stimulation (lot 1, Day 7, AI method): 5.1 fold | ADAM28 (35479_at) expression, fold change upon IL-13 stimulation (lot 1, Day 7, AI method): 5 fold | AI565105 (54886_at) expression fold change (lot 1, Day 7, AI method): 2.4 fold | AI659927 (54033_at) expression fold change (lot 1, Day 7, AI method): 4.2 fold
